How the values were obtained:
Type in all cases: in vivo
[1] = test system: pigweed (Amaranthus retroflexus); test: Test A postemergence, pigweed; conditions: 0 to 100 scale (0 no effect, 100 complete control)
Procedure, shortened: (§1)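 Pre: directed soil spray after sowing in loam/sand. Post: seedlings at 1–2 leaf stage, 2–10 cm. Vehicle: non-phytotoxic solvent mix + surfactant. Greenhouse ~10 d; visual injury 0–100 vs untreated controls.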

[2] = test system: giant foxtail (Setaria faberi); test: Test A postemergence, giant foxtail; conditions: 0 to 100 scale (0 no effect, 100 complete control)
Procedure, shortened: as §1

[3] = test system: pigweed (Amaranthus retroflexus); test: Test A preemergence, pigweed; conditions: 0 to 100 scale (0 no effect, 100 complete control)
Procedure, shortened: as §1

[4] = test system: velvetleaf (Abutilon theophrasti); test: Test A postemergence, velvetleaf; conditions: 0 to 100 scale (0 no effect, 100 complete control)
Procedure, shortened: as §1

[5] = test system: wheat (Triticum aestivum); test: Test A postemergence, wheat; conditions: 0 to 100 scale (0 no effect, 100 complete control)
Procedure, shortened: as §1

[6] = test system: large crabgrass (Digitaria sanguinalis); test: Test A postemergence, large crabgrass; conditions: 0 to 100 scale (0 no effect, 100 complete control)
Procedure, shortened: as §1

[7] = test system: ducksalad (Heteranthera limosa); test: Test B flooded paddy test, ducksalad; conditions: Flood, scale 0 to 100
Procedure, shortened: (§2)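 Step one: raise plants to 2 leaves. Step two: flood pots 3 cm over the soil and apply compound into the water, keeping this depth. Step three: after 13–15 greenhouse days, score visually versus controls, 0–100, where 100 means complete control.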

[8] = test system: barnyardgrass (Echinochloa crus-galli); test: Test B flooded paddy test, barnyardgrass; conditions: Flood
Procedure, shortened: as §2

[9] = test system: large crabgrass (Digitaria sanguinalis); test: Test A preemergence, large crabgrass; conditions: 0 to 100 scale (0 no effect, 100 complete control)
Procedure, shortened: as §1

[10] = test system: morningglory (Ipomoea spp.); test: Test A preemergence, morningglory; conditions: 0 to 100 scale (0 no effect, 100 complete control)
Procedure, shortened: as §1

[11] = test system: giant foxtail (Setaria faberi); test: Test A preemergence, giant foxtail; conditions: 0 to 100 scale (0 no effect, 100 complete control)
Procedure, shortened: as §1

[12] = test system: barnyardgrass (Echinochloa crus-galli); test: Test A postemergence, barnyardgrass; conditions: 0 to 100 scale (0 no effect, 100 complete control)
Procedure, shortened: as §1

[13] = test system: wheat (Triticum aestivum); test: Test A preemergence, wheat; conditions: 0 to 100 scale (0 no effect, 100 complete control)
Procedure, shortened: as §1

[14] = test system: morningglory (Ipomoea spp.); test: Test A postemergence, morningglory; conditions: 0 to 100 scale (0 no effect, 100 complete control)
Procedure, shortened: as §1

[15] = test system: barnyardgrass (Echinochloa crus-galli); test: Test A preemergence, barnyardgrass; conditions: 0 to 100 scale (0 no effect, 100 complete control)
Procedure, shortened: as §1

corn (Zea mays) [16] = test: Test A preemergence, corn; conditions: 0 to 100 scale (0 no effect, 100 complete control)
Procedure, shortened: as §1

[17] = test system: umbrella sedge (Cyperus difformis); test: Test B flooded paddy test, umbrella sedge; conditions: Flood, scale 0 to 100
Procedure, shortened: as §2

[18] = test system: velvetleaf (Abutilon theophrasti); test: Test A preemergence, velvetleaf; conditions: 0 to 100 scale (0 no effect, 100 complete control)
Procedure, shortened: as §1

rice (Oryza sativa) = test: Test B flooded paddy test, rice; conditions: Flood, scale 0 to 100
Procedure, shortened: as §2

corn (Zea mays) [19] = test: Test A postemergence, corn; conditions: 0 to 100 scale (0 no effect, 100 complete control)
Procedure, shortened: as §1

[20] = 250 g ai/ha, scale 0 to 100 (0 no effect, 100 complete control)

Structure (SMILES): CC1(C)CC([S+]([O-])Cc2c(C(F)(F)F)nc3cccnn3c2=O)=NO1 (centres unmarked) [Compound 46]
- Plant response rating, Pigweed ([1]; 125 g ai/ha): 0
- Plant response rating, Pigweed ([1]; 500 g ai/ha): 0
- Plant response rating, Foxtail, Giant ([2]; 125 g ai/ha): 0
- Plant response rating, Foxtail, Giant ([2]; 500 g ai/ha): 0
- Plant response rating, Pigweed ([3]; 125 g ai/ha): 0
- Plant response rating, Pigweed ([3]; 500 g ai/ha): 0
- Plant response rating, Velvetleaf ([4]; 125 g ai/ha): 0
- Plant response rating, Velvetleaf ([4]; 500 g ai/ha): 0
- Plant response rating, Wheat ([5]; 125 g ai/ha): 0
- Plant response rating, Wheat ([5]; 500 g ai/ha): 0
- Plant response rating, Crabgrass, Large ([6]; 125 g ai/ha): 0
- Plant response rating, Crabgrass, Large ([6]; 500 g ai/ha): 0
- Plant response rating, Ducksalad ([7]; 31 g ai/ha): 0
- Plant response rating, Ducksalad ([7]; 62 g ai/ha): 0
- Plant response rating, Ducksalad ([7]; 125 g ai/ha): 0
- Plant response rating, Ducksalad ([7]; 250 g ai/ha): 0
- Plant response rating, Barnyardgrass ([8]; 31 g ai/ha, scale 0 to 100): 0
- Plant response rating, Barnyardgrass ([8]; 62 g ai/ha, scale 0 to 100): 0
- Plant response rating, Barnyardgrass ([8]; 125 g ai/ha, scale 0 to 100): 0
- Plant response rating, Barnyardgrass [8, 20]: 0
- Plant response rating, Crabgrass, Large ([9]; 125 g ai/ha): 0
- Plant response rating, Crabgrass, Large ([9]; 500 g ai/ha): 0
- Plant response rating, Morningglory ([10]; 125 g ai/ha): 0
- Plant response rating, Morningglory ([10]; 500 g ai/ha): 0
- Plant response rating, Foxtail, Giant ([11]; 125 g ai/ha): 0
- Plant response rating, Foxtail, Giant ([11]; 500 g ai/ha): 0
- Plant response rating, Barnyardgrass ([12]; 125 g ai/ha): 0
- Plant response rating, Barnyardgrass ([12]; 500 g ai/ha): 0
- Plant response rating, Wheat ([13]; 125 g ai/ha): 0
- Plant response rating, Wheat ([13]; 500 g ai/ha): 0
- Plant response rating, Morningglory ([14]; 125 g ai/ha): 0
- Plant response rating, Morningglory ([14]; 500 g ai/ha): 0
- Plant response rating, Barnyardgrass ([15]; 125 g ai/ha): 0
- Plant response rating, Barnyardgrass ([15]; 500 g ai/ha): 0
- Plant response rating, Corn (corn (Zea mays) [16]; 125 g ai/ha): 0
- Plant response rating, Corn (corn (Zea mays) [16]; 500 g ai/ha): 0
- Plant response rating, Sedge, Umbrella ([17]; 31 g ai/ha): 0
- Plant response rating, Sedge, Umbrella ([17]; 62 g ai/ha): 0
- Plant response rating, Sedge, Umbrella ([17]; 125 g ai/ha): 0
- Plant response rating, Sedge, Umbrella ([17]; 250 g ai/ha): 0
- Plant response rating, Velvetleaf ([18]; 125 g ai/ha): 0
- Plant response rating, Velvetleaf ([18]; 500 g ai/ha): 20
- Plant response rating, Rice (rice (Oryza sativa); 31 g ai/ha): 0
- Plant response rating, Rice (rice (Oryza sativa); 62 g ai/ha): 0
- Plant response rating, Rice (rice (Oryza sativa); 125 g ai/ha): 0
- Plant response rating, Rice (rice (Oryza sativa); 250 g ai/ha): 0
- Plant response rating, Corn (corn (Zea mays) [19]; 125 g ai/ha): 0
- Plant response rating, Corn (corn (Zea mays) [19]; 500 g ai/ha): 0

Structure (SMILES): Cc1con2c(=O)c(C[S+]([O-])C3=NOC(C)(C)C3)c(C(F)(F)F)nc12 (centres unmarked) [Compound 47]
- Plant response rating, Pigweed ([1]; 125 g ai/ha): 0
- Plant response rating, Pigweed ([1]; 500 g ai/ha): 0
- Plant response rating, Foxtail, Giant ([2]; 125 g ai/ha): 0
- Plant response rating, Foxtail, Giant ([2]; 500 g ai/ha): 60
- Plant response rating, Pigweed ([3]; 125 g ai/ha): 0
- Plant response rating, Pigweed ([3]; 500 g ai/ha): 0
- Plant response rating, Velvetleaf ([4]; 125 g ai/ha): 0
- Plant response rating, Velvetleaf ([4]; 500 g ai/ha): 0
- Plant response rating, Wheat ([5]; 125 g ai/ha): 0
- Plant response rating, Wheat ([5]; 500 g ai/ha): 0
- Plant response rating, Crabgrass, Large ([6]; 125 g ai/ha): 0
- Plant response rating, Crabgrass, Large ([6]; 500 g ai/ha): 60
- Plant response rating, Ducksalad ([7]; 62 g ai/ha): 0
- Plant response rating, Ducksalad ([7]; 250 g ai/ha): 0
- Plant response rating, Barnyardgrass ([8]; 62 g ai/ha, scale 0 to 100): 0
- Plant response rating, Barnyardgrass [8, 20]: 0
- Plant response rating, Crabgrass, Large ([9]; 125 g ai/ha): 0
- Plant response rating, Crabgrass, Large ([9]; 500 g ai/ha): 20
- Plant response rating, Morningglory ([10]; 125 g ai/ha): 0
- Plant response rating, Morningglory ([10]; 500 g ai/ha): 0
- Plant response rating, Foxtail, Giant ([11]; 125 g ai/ha): 0
- Plant response rating, Foxtail, Giant ([11]; 500 g ai/ha): 30
- Plant response rating, Barnyardgrass ([12]; 125 g ai/ha): 0
- Plant response rating, Barnyardgrass ([12]; 500 g ai/ha): 50
- Plant response rating, Wheat ([13]; 125 g ai/ha): 0
- Plant response rating, Wheat ([13]; 500 g ai/ha): 0
- Plant response rating, Morningglory ([14]; 125 g ai/ha): 0
- Plant response rating, Morningglory ([14]; 500 g ai/ha): 20
- Plant response rating, Barnyardgrass ([15]; 125 g ai/ha): 0
- Plant response rating, Barnyardgrass ([15]; 500 g ai/ha): 70
- Plant response rating, Corn (corn (Zea mays) [16]; 125 g ai/ha): 0
- Plant response rating, Corn (corn (Zea mays) [16]; 500 g ai/ha): 0
- Plant response rating, Sedge, Umbrella ([17]; 62 g ai/ha): 0
- Plant response rating, Sedge, Umbrella ([17]; 250 g ai/ha): 0
- Plant response rating, Velvetleaf ([18]; 125 g ai/ha): 0
- Plant response rating, Velvetleaf ([18]; 500 g ai/ha): 0
- Plant response rating, Rice (rice (Oryza sativa); 62 g ai/ha): 0
- Plant response rating, Rice (rice (Oryza sativa); 250 g ai/ha): 0
- Plant response rating, Corn (corn (Zea mays) [19]; 125 g ai/ha): 0
- Plant response rating, Corn (corn (Zea mays) [19]; 500 g ai/ha): 20

Structure (SMILES): Cc1cc2nc(C(F)(F)F)c(C[S+]([O-])C3=NOC(C)(C)C3)c(=O)n2o1 (centres unmarked) [Compound 50]
- Plant response rating, Pigweed ([1]; 125 g ai/ha): 0
- Plant response rating, Pigweed ([1]; 500 g ai/ha): 0
- Plant response rating, Foxtail, Giant ([2]; 125 g ai/ha): 0
- Plant response rating, Foxtail, Giant ([2]; 500 g ai/ha): 60
- Plant response rating, Pigweed ([3]; 125 g ai/ha): 0
- Plant response rating, Pigweed ([3]; 500 g ai/ha): 0
- Plant response rating, Velvetleaf ([4]; 125 g ai/ha): 0
- Plant response rating, Velvetleaf ([4]; 500 g ai/ha): 0
- Plant response rating, Wheat ([5]; 125 g ai/ha): 0
- Plant response rating, Wheat ([5]; 500 g ai/ha): 0
- Plant response rating, Crabgrass, Large ([6]; 125 g ai/ha): 0
- Plant response rating, Crabgrass, Large ([6]; 500 g ai/ha): 50
- Plant response rating, Ducksalad ([7]; 62 g ai/ha): 0
- Plant response rating, Ducksalad ([7]; 250 g ai/ha): 0
- Plant response rating, Barnyardgrass ([8]; 62 g ai/ha, scale 0 to 100): 0
- Plant response rating, Barnyardgrass [8, 20]: 0
- Plant response rating, Crabgrass, Large ([9]; 125 g ai/ha): 0
- Plant response rating, Crabgrass, Large ([9]; 500 g ai/ha): 70
- Plant response rating, Morningglory ([10]; 125 g ai/ha): 0
- Plant response rating, Morningglory ([10]; 500 g ai/ha): 0
- Plant response rating, Foxtail, Giant ([11]; 125 g ai/ha): 0
- Plant response rating, Foxtail, Giant ([11]; 500 g ai/ha): 70
- Plant response rating, Barnyardgrass ([12]; 125 g ai/ha): 0
- Plant response rating, Barnyardgrass ([12]; 500 g ai/ha): 60
- Plant response rating, Wheat ([13]; 125 g ai/ha): 0
- Plant response rating, Wheat ([13]; 500 g ai/ha): 0
- Plant response rating, Morningglory ([14]; 125 g ai/ha): 0
- Plant response rating, Morningglory ([14]; 500 g ai/ha): 10
- Plant response rating, Barnyardgrass ([15]; 125 g ai/ha): 0
- Plant response rating, Barnyardgrass ([15]; 500 g ai/ha): 70
- Plant response rating, Corn (corn (Zea mays) [16]; 125 g ai/ha): 0
- Plant response rating, Corn (corn (Zea mays) [16]; 500 g ai/ha): 0
- Plant response rating, Sedge, Umbrella ([17]; 62 g ai/ha): 0
- Plant response rating, Sedge, Umbrella ([17]; 250 g ai/ha): 0
- Plant response rating, Velvetleaf ([18]; 125 g ai/ha): 0
- Plant response rating, Velvetleaf ([18]; 500 g ai/ha): 0
- Plant response rating, Rice (rice (Oryza sativa); 62 g ai/ha): 0
- Plant response rating, Rice (rice (Oryza sativa); 250 g ai/ha): 0
- Plant response rating, Corn (corn (Zea mays) [19]; 125 g ai/ha): 0
- Plant response rating, Corn (corn (Zea mays) [19]; 500 g ai/ha): 30

Source: patent US20100099561A1, “HETEROBICYCLIC ALKYLTHIO-BRIDGED ISOXAZOLINES” (E.I. DU PONT DE NEMOURS AND COMPANY, priority 2008, published 2010)
